Results: patent publication US20140370067A1, “Method and applicator for the perioperative disinfection of medical instruments to be inserted through non-natural openings” (priority 2012, published 2014)

Assay: Effectiveness and irritation of lower octenidine concentration in gel formulation (statement in description)
Conditions: concentration of 0.05% octenidine, compared with common 0.1%

## CCCCCCCCN=c1ccn(CCCCCCCCCCn2ccc(=NCCCCCCCC)cc2)cc1 [octenidine, 1,1′-(1.1 O-decandiyl) to [4-(octylamino)pyridinium]-dichloride]
  effectiveness: sufficiently good effectiveness
  irritation: lower irritation
